Assay [1] concerns the target T1, Prostaglandin G/H synthase 1 (Rattus norvegicus, UniProt Q63921).
T1 sequence (Q63921 whole entry): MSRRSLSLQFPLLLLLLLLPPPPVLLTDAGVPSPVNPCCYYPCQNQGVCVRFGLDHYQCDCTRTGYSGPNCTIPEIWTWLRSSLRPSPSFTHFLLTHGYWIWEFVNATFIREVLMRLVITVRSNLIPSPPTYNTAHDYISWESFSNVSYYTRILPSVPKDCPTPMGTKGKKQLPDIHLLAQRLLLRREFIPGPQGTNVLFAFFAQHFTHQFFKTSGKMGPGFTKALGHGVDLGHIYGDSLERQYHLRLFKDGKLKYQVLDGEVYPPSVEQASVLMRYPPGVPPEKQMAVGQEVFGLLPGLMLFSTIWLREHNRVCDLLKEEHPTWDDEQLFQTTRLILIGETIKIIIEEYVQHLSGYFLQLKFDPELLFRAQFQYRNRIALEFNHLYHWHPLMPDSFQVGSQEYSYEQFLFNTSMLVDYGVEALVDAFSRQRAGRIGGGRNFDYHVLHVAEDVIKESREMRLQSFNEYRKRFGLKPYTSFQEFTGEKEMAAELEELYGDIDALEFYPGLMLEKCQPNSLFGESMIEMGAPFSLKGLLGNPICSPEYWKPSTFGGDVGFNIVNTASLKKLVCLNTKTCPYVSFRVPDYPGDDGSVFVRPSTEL
Format: functional.

Assay [2] addresses T2, Muscarinic acetylcholine receptor M4 (Homo sapiens, UniProt P08173).
T2 sequence (P08173 whole entry): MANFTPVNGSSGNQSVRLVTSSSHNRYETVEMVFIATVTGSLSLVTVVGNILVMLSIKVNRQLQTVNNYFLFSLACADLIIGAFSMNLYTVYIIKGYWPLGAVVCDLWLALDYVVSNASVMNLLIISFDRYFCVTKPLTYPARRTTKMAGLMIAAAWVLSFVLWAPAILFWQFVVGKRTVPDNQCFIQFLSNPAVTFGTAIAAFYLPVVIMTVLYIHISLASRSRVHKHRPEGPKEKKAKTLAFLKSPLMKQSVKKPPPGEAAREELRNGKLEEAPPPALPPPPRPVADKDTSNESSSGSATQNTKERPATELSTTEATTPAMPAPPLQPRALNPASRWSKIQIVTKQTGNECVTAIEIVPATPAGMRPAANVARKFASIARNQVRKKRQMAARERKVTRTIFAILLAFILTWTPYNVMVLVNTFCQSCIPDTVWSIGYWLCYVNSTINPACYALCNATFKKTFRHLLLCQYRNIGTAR

In assay [3] the target is T3, Type-1 angiotensin II receptor (Homo sapiens, UniProt P30556).
T3 sequence (P30556 whole entry): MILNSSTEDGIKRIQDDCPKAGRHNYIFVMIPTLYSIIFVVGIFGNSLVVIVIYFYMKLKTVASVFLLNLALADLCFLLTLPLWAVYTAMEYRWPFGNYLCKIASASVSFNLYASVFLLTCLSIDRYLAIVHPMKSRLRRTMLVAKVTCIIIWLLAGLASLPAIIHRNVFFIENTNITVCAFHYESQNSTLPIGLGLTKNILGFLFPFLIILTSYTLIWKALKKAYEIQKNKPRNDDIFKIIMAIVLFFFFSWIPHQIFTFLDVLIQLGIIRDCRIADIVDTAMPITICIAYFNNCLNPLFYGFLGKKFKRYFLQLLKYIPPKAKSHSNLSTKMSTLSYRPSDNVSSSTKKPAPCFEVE

Assay [4] has as its target T4, Type-2 angiotensin II receptor (Homo sapiens, UniProt P50052). It is filed as functional.
The target in assay [5] is T5, Muscarinic acetylcholine receptor M1 (Homo sapiens, UniProt P11229).
T5 sequence (P11229 whole entry): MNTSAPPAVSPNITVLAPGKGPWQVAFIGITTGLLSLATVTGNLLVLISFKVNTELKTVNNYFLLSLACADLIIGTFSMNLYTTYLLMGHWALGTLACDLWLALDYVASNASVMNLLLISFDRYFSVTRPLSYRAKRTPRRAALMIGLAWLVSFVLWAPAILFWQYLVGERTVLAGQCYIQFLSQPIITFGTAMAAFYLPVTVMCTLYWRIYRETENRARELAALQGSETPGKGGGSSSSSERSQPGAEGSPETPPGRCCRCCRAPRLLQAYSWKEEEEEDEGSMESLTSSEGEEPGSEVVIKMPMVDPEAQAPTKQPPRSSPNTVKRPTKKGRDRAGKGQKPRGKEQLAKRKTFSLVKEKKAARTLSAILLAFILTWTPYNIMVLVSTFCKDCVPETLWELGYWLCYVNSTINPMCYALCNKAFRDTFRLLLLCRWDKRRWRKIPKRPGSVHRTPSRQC

Assay [6] has as its target 5-hydroxytryptamine receptor 2B (Homo sapiens, UniProt P41595).
Assay [7] concerns the target T3, Type-1 angiotensin II receptor. The source holds these as a separate data set.
The target of assay [8] is Sodium-dependent serotonin transporter (Homo sapiens, UniProt P31645).
Chain of Sodium-dependent serotonin transporter (P31645 whole entry): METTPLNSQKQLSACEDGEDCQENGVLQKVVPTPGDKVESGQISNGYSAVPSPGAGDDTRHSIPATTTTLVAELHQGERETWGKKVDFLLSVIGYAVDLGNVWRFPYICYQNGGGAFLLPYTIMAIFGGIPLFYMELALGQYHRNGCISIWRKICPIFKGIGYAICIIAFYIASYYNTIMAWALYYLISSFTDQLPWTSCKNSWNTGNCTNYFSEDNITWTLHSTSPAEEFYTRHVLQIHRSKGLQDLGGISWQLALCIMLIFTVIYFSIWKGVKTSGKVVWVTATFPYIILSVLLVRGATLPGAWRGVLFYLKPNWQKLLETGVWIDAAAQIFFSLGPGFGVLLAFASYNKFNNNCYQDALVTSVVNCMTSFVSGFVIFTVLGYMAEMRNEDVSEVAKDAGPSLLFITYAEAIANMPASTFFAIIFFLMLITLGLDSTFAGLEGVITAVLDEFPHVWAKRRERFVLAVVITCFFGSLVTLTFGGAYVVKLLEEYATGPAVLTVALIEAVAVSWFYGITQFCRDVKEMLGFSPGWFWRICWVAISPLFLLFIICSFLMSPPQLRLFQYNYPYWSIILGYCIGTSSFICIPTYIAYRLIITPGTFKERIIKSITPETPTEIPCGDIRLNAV
Assay [9] concerns the target Voltage-dependent L-type calcium channel subunit alpha-1C (Homo sapiens, UniProt Q13936). It is filed as functional, cell-based.
Assay [10] concerns the target T5, Muscarinic acetylcholine receptor M1. Format: functional, cell-based.
For assay [11] the target is unchanged. It is filed as functional, cell-based. The source holds these as a separate data set.
Assay [12] addresses Hydroxycarboxylic acid receptor 2 (Homo sapiens, UniProt Q8TDS4).
A further assay has as its target D(1A) dopamine receptor (Homo sapiens, UniProt P21728). Format: functional, cell-based.
In assay [13] the target is T4, Type-2 angiotensin II receptor. It is filed as functional. The source holds these as a separate data set.

Drawing on ChEMBL document CHEMBL5291721, “A preclinical secondary pharmacology resource illuminates target-adverse drug reaction associations of marketed drugs” (Nat Commun, 2023), this text covers AC50 for twelve compounds.

Bounds are passed on as bounds.
Note: assay procedure not described here.

T4 sequence (P50052 whole entry): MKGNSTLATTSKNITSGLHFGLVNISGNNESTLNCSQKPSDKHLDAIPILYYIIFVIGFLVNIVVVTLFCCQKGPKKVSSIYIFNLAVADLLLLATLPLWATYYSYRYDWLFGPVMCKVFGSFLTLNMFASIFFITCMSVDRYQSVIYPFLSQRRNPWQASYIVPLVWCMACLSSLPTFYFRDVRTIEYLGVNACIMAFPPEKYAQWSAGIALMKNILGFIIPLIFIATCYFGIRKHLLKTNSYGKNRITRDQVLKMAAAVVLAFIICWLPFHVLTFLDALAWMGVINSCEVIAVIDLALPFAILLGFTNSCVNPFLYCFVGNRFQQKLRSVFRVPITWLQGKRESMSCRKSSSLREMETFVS
Chain of Hydroxycarboxylic acid receptor 2 (Q8TDS4 whole entry): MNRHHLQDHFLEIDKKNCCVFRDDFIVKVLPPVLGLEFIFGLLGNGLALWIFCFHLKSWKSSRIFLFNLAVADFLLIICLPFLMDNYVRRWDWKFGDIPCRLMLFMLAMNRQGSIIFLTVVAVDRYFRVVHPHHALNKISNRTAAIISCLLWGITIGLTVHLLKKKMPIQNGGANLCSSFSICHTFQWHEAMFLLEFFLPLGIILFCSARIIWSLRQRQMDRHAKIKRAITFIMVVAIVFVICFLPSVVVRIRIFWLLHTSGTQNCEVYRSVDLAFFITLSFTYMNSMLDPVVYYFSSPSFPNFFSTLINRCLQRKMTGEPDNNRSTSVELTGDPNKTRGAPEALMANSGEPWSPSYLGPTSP
Chain of D(1A) dopamine receptor (P21728 whole entry): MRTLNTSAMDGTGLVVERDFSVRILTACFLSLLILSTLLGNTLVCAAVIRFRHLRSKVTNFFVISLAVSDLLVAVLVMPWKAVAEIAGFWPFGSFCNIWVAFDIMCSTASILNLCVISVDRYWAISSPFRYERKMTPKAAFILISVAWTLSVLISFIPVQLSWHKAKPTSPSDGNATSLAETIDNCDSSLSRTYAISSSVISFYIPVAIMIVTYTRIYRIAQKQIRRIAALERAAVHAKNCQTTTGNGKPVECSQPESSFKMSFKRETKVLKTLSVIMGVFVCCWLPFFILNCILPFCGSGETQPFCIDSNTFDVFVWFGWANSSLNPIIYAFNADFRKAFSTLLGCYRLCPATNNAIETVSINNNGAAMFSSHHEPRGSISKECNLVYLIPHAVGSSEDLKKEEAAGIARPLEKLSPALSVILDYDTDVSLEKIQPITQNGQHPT
Chain of Voltage-dependent L-type calcium channel subunit alpha-1C (Q13936 whole entry): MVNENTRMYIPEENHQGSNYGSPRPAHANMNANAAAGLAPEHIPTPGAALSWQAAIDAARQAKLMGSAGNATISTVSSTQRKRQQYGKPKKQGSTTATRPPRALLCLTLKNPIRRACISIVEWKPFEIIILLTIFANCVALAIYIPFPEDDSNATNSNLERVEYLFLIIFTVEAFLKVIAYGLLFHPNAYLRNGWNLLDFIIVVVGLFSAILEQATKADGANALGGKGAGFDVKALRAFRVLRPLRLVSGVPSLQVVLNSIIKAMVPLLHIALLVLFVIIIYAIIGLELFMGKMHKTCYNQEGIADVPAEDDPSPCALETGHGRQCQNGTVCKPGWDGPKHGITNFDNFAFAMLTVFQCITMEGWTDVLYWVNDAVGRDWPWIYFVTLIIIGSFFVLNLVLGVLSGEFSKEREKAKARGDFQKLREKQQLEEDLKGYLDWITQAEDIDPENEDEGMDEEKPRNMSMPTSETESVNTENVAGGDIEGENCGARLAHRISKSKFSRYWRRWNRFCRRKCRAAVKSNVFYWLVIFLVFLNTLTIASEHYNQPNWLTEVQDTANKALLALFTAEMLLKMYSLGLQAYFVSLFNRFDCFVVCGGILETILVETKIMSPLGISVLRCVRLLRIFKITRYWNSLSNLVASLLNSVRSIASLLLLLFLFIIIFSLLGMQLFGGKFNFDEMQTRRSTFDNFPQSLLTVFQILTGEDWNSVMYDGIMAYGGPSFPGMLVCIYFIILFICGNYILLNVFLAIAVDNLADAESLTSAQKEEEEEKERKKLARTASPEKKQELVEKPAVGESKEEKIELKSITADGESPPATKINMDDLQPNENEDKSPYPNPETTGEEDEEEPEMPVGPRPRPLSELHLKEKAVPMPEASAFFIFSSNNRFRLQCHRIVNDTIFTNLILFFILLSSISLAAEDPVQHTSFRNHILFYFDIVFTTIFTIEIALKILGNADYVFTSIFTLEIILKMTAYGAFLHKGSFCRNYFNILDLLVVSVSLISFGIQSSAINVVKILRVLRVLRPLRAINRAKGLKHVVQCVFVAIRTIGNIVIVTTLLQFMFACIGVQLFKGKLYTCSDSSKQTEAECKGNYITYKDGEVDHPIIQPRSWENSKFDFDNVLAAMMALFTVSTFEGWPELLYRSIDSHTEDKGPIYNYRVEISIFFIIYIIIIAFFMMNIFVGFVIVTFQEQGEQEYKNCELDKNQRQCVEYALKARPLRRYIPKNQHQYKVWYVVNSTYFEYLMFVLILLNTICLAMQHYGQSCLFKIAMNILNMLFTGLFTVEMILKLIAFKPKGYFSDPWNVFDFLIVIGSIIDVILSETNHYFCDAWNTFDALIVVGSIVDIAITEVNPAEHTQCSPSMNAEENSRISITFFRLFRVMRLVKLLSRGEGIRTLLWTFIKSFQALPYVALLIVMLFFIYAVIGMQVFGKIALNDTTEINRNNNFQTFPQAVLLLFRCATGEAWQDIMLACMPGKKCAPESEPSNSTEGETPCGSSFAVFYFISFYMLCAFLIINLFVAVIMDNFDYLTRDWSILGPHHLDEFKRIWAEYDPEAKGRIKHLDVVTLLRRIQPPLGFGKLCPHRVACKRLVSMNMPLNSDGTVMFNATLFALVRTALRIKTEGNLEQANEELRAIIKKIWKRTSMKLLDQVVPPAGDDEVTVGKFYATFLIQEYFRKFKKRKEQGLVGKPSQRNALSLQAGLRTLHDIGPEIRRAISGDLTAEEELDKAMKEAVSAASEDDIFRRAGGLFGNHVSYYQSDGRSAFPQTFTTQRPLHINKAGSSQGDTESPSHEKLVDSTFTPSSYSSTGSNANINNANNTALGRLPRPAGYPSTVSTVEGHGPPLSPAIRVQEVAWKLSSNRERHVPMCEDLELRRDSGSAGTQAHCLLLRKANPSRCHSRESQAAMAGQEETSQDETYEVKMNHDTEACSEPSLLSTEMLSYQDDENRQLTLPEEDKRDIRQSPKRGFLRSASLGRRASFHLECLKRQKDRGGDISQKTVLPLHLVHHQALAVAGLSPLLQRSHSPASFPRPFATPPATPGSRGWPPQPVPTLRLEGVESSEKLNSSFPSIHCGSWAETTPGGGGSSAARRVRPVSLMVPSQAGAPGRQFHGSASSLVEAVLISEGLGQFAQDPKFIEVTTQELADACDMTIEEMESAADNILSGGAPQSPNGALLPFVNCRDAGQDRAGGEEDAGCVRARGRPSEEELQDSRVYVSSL
Chain of 5-hydroxytryptamine receptor 2B (P41595 whole entry): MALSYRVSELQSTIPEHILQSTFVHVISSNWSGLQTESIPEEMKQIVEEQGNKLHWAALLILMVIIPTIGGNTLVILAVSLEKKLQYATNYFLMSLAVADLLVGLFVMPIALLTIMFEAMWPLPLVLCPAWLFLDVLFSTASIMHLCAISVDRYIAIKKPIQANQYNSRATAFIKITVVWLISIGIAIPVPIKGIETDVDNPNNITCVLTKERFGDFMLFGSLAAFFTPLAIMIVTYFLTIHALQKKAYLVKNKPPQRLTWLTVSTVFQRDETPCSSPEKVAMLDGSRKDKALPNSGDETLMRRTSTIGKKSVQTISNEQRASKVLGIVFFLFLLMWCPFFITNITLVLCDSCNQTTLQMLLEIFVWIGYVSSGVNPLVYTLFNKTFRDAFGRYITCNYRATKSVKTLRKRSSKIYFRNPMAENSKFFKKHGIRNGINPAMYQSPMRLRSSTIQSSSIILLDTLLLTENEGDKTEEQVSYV

Take `Clc1ccc(C(Cn2ccnc2)OCc2ccsc2Cl)c(Cl)c1` (stereo unspecified) [TIOCONAZOLE]: the AC50 (usually the concentration giving half of the maximal activity seen) in [1] is 14 µM.

Turning to `CN1CCN(C2=Nc3ccccc3Oc3ccc(Cl)cc32)CC1` [LOXAPINE], in [2], the AC50 was 3.73 µM. Regarding `CCCc1nc(C(C)(C)O)c(C(=O)O)n1Cc1ccc(-c2ccccc2-c2nnn[nH]2)cc1` [OLMESARTAN], the AC50 was determined as 0.0008 µM in [3] and 54 µM in [4]. The compound `O=[N+]([O-])c1ccc(O)c2ncccc12` [NITROXOLINE] came in with a half-maximal activity concentration (AC50) in [5] greater than 30 µM. In assay [6], `CCCN[C@H]1CCc2nc(N)sc2C1` [PRAMIPEXOLE] returned an AC50 of 18.4 µM.

In [7], `CC(C)NCC(O)c1ccc(O)c(O)c1` (stereo unspecified) [ISOPROTERENOL] showed an AC50 greater than 100 µM. As to `OC1(c2ccc(Cl)cc2)c2ccccc2C2=NCCN21` (stereo unspecified) [MAZINDOL], the results for the AC50 in [8], in assay [2] and in [9] were 0.23 µM, greater than 10 µM and greater than 50 µM, respectively. Take `CC1OC2(CS1)CN1CCC2CC1` (stereo unspecified) [CEVIMELINE]: the AC50 in assay [10] is 19 µM; in assay [11] it was greater than 30 µM. `CCC(=O)O[C@]1(C(=O)SCF)[C@H](C)C[C@H]2[C@@H]3C[C@H](F)C4=CC(=O)C=C[C@]4(C)[C@@]3(F)[C@@H](O)C[C@@]21C` [FLUTICASONE PROPIONATE] displayed an AC50 in assay [12] greater than 10 µM. With `Cc1cc(C(C)(C)C)cc(C)c1CC1=NCCN1` [XYLOMETAZOLINE], on D(1A) dopamine receptor, the AC50 is greater than 30 µM. `CC(CCc1ccc(O)cc1)NCCc1ccc(O)c(O)c1` (stereo unspecified) [DOBUTAMINE] returned an AC50 in assay [13] greater than 100 µM. For `CC(C)COCC(CN(Cc1ccccc1)c1ccccc1)N1CCCC1` (stereo unspecified) [BEPRIDIL], the AC50 in [1] was greater than 30 µM.
